Eight compounds from ChEMBL document CHEMBL1201862, “PubChem BioAssay data set” (2004) can be followed below.

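Five concentrations, 48 hours, 96-well plates. GI50 is the concentration that inhibits growth by half.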 Activity calls are given as the source filed them. Cut-off read from the data, not from the text of the source: active = GI50 up to about 1.1 µM and inactive = higher. Bounds are passed on as bounds.

Test systems include HCT-15; SN12C; PC-3; HCT-116; KM12; DU-145; LOX IMVI; K562; A498; 786-0; SNB-75; SF-295; SK-MEL-5; NCI-H522; SK-OV-3; HL-60; SNB-19; MOLT-4; MCF7; CCRF-CEM.
What all share (experiment): inhibition of tumour cell growth, NCI panel, 48 h

Consider `CC1OC(O)CC(N(C)C)C1O.CC1OC(O)CCC1O.CCC1CC(O)c2c(O)c3c(c(O)c2C1O)C(=O)c1cccc(O)c1C3=O` (stereo not given), for which the GI50 is 0.0381 µM with HCT-15; 0.0353 µM (active) in the test with SN12C; 0.0177 µM (active) in the test with PC-3; 0.00771 µM (active) in the test on HCT-116; 0.0209 µM (active) with KM12; 0.0333 µM (active) in the test on DU-145. Also, the GI50 was 0.0135 µM (active) in the test with LOX IMVI; 0.00597 µM (active) in the test on K562; 0.0114 µM (active) with A498; 0.0124 µM (active) in the test with 786-0; 0.0136 µM (active) in the test on SNB-75; 0.0323 µM (active) in the test on SF-295. The GI50 in the test with SK-MEL-5 was 0.0177 µM (active); in the test on NCI-H522 it was 0.0121 µM (active); with SK-OV-3, 0.033 µM (active); in the test with HL-60, 0.0305 µM (active); with SNB-19, 0.0301 µM (active); with MOLT-4, 0.0284 µM (active). Moreover, the GI50 was 0.0325 µM (active) in the test with MCF7 and 0.0223 µM (active) in the test with CCRF-CEM.

Regarding `CC1=C(Br)C(=O)c2c(O)ccc(O)c2C1=O`, the GI50 in the test with HCT-15 is 0.342 µM; in the test on SN12C, 1.38 µM (inactive); in the test with PC-3, 1.41 µM (inactive); with HCT-116 it was 0.303 µM (active); in the test with KM12, 1.57 µM (inactive); with DU-145, 1.52 µM (inactive). Moreover, the GI50 in the test on LOX IMVI was 0.55 µM (active); in the test on K562 it was 0.133 µM (active); with A498, 1.7 µM (inactive); in the test on 786-0 it was 0.19 µM (active); in the test with SNB-75 it was 1.51 µM (inactive); with SF-295, 1.67 µM (inactive). In addition, the GI50 is 0.435 µM (active) with SK-MEL-5; 0.153 µM (active) in the test with NCI-H522; 1.85 µM (inactive) in the test on SK-OV-3; 0.0306 µM (active) in the test on HL-60; 1.72 µM (inactive) with SNB-19; 0.0258 µM (active) in the test on MOLT-4. Besides, the GI50 in the test on MCF7 is 0.182 µM (active); with CCRF-CEM, 0.0183 µM (active).

With `O=C1CC2(CCNCC2)C(=O)N1N1CCCCC1`, the GI50 was over 100 µM in the test on HCT-15; > 100 µM (inactive) in the test with SN12C; > 100 µM (inactive) in the test with PC-3; > 100 µM (inactive) in the test on HCT-116; > 100 µM (inactive) with KM12; > 100 µM (inactive) in the test with DU-145. Moreover, the GI50 with LOX IMVI, with K562, in the test with A498, in the test on 786-0, in the test on SNB-75 and in the test with SF-295 was > 100 µM (inactive) throughout. The GI50 in the test on SK-MEL-5, with NCI-H522, with SK-OV-3, with HL-60, with SNB-19 and in the test with MOLT-4 was > 100 µM (inactive) throughout. In addition, the GI50 in the test with MCF7 and in the test with CCRF-CEM was > 100 µM (inactive) in each case.

Regarding `CC1CC2=C(C1)C(C1(C)C(=O)CC3C(C1=O)C3(C)C)C(C)C2=O` (stereo not given), the GI50 was over 100 µM with HCT-15; > 100 µM (inactive) with SN12C; > 100 µM (inactive) with PC-3; > 100 µM (inactive) with HCT-116; > 100 µM (inactive) in the test on KM12; > 100 µM (inactive) in the test with DU-145. Besides, the GI50 with LOX IMVI, in the test with K562, in the test on A498, with 786-0, in the test on SNB-75 and with SF-295 was > 100 µM (inactive) throughout. Moreover, the GI50 with SK-MEL-5 is > 100 µM (inactive); in the test on NCI-H522, > 100 µM (inactive); in the test on SK-OV-3, > 100 µM (inactive); with HL-60 it was > 100 µM (inactive); in the test with SNB-19 it was > 100 µM (inactive); with MOLT-4 it was 62.7 µM (inactive). In addition, the GI50 in the test with MCF7 and in the test with CCRF-CEM was > 100 µM (inactive) throughout.

On to `NCCCN(CCCCN(CCCN)C(=O)OCc1ccccc1)C(=O)OCc1ccccc1`, for which the GI50 in the test on HCT-15 is over 100 µM; with SN12C it was > 100 µM (inactive); with PC-3 it was 45.8 µM (inactive); in the test on HCT-116, > 100 µM (inactive); with KM12, > 100 µM (inactive); in the test with DU-145, > 100 µM (inactive). Further, the GI50 was 39.8 µM (inactive) in the test with LOX IMVI; 37.9 µM (inactive) with K562; > 100 µM (inactive) in the test on A498; > 100 µM (inactive) in the test with 786-0; 56.8 µM (inactive) in the test on SNB-75; > 100 µM (inactive) in the test with SF-295. Also, the GI50 with SK-MEL-5 is > 100 µM (inactive); with NCI-H522 it was 28.5 µM (inactive); in the test with SK-OV-3 it was > 100 µM (inactive); in the test on HL-60, 29.8 µM (inactive); in the test on SNB-19, 81.8 µM (inactive); in the test with MOLT-4, 47.9 µM (inactive). Besides, the results for the GI50 in the test with MCF7 and in the test on CCRF-CEM were 30.9 µM (inactive) and 47 µM (inactive), respectively.

As for `Nc1nc(N)c2ncn(Cc3ccccc3CO)c2n1`, the GI50 with HCT-15 is over 100 µM; in the test with SN12C, > 100 µM (inactive); in the test with PC-3 it was > 100 µM (inactive); in the test with HCT-116, > 100 µM (inactive); in the test on KM12, > 100 µM (inactive); with DU-145 it was > 100 µM (inactive). Besides, the GI50 in the test on LOX IMVI, in the test on K562, in the test with A498, in the test on 786-0, with SNB-75 and in the test with SF-295 was > 100 µM (inactive) in each case. The GI50 with SK-MEL-5, in the test with NCI-H522, in the test on SK-OV-3, in the test with HL-60, with SNB-19 and with MOLT-4 was > 100 µM (inactive) throughout. Moreover, the GI50 with MCF7 is > 100 µM (inactive); in the test with CCRF-CEM it was 29.7 µM (inactive).

Consider `O=C1CCCCc2cccc(O)c21`, for which the GI50 in the test with HCT-15 is over 100 µM; in the test on SN12C it was > 100 µM (inactive); with PC-3, > 100 µM (inactive); with HCT-116 it was > 100 µM (inactive); with KM12 it was > 100 µM (inactive); in the test with DU-145, > 100 µM (inactive). The GI50 with LOX IMVI, in the test with K562, in the test on A498, in the test with 786-0, in the test on SNB-75 and in the test with SF-295 was > 100 µM (inactive) in each case. In addition, the GI50 with SK-MEL-5, in the test with NCI-H522, in the test with SK-OV-3, in the test with HL-60, with SNB-19 and in the test on MOLT-4 was > 100 µM (inactive) each time. The GI50 in the test on MCF7 and in the test with CCRF-CEM was > 100 µM (inactive) in each case.

As for `COC(=O)C1=C(C(=O)OC)SC2(S1)C(C(=O)OC)=C(C(=O)OC)Sc1c2ss/c1=N\c1ccc(Cl)cc1`, the GI50 in the test on HCT-15 was 0.318 µM; in the test with SN12C, 0.552 µM (active); in the test on PC-3 it was 0.44 µM (active); with HCT-116, 0.283 µM (active); with KM12, 0.767 µM (active); with DU-145, 0.479 µM (active). Besides, the GI50 in the test with LOX IMVI is 0.339 µM (active); in the test on K562 it was 1.31 µM (inactive); in the test on A498 it was 1.77 µM (inactive); with 786-0, 0.516 µM (active); with SNB-75, 1.07 µM (active); with SF-295 it was 2.19 µM (inactive). The GI50 is 1.39 µM (inactive) with SK-MEL-5; 0.352 µM (active) in the test with NCI-H522; 2 µM (inactive) with SK-OV-3; 1.11 µM (active) in the test with HL-60; 1.53 µM (inactive) with SNB-19; 0.336 µM (active) with MOLT-4. Besides, the GI50 in the test with MCF7 is 1.11 µM (active); with CCRF-CEM, 0.197 µM (active).
